Source: US20230090982A1, “DRUG FOR TREATING C[…] […] […] C” (priority 2020, published 2023)
Like-named read-outs stand apart in the source and are kept apart here.

Columns and labels:
[1] = system: Primary human gingival fibroblasts
[2] = system: HeLa cervical adenocarcinoma cells
[3] = in water, alcohol; cited from earlier work
[4] = 0.074% formaldehyde diluted in culture medium, compared with 0.11% formaldehyde solution
[5] = 0.074% formaldehyde in saline, compared with incubation in 0.11% formaldehyde solution
[6] = incubation in culture medium, added formaldehyde 0.00056%
[7] = incubation in culture medium, added formaldehyde 0.0028%
[8] = incubation in culture medium, added formaldehyde 0.014%
[9] = incubation in culture medium, added formaldehyde 0.074%
[10] = incubation in culture medium, added formaldehyde 0.11%
[11] = incubation in saline, added formaldehyde 0.00056%
[12] = incubation in saline, added formaldehyde 0.0028%
[13] = incubation in saline, added formaldehyde 0.014%
[14] = incubation in saline, added formaldehyde 0.074%
[15] = incubation in saline, added formaldehyde 0.11%

Question: For C=O [formaldehyde], which “activation of the production of endogenous formaldehyde” value (shortened to “activation”) [1, 4] is on record?
Answer: 20.6%

Question: What about the “activation” value [1, 5] of the same compound?
Answer: 18.4%

Question: What about the “Formaldehyde accumulation, Cells, % of what added” value [1, 6] of the same compound?
Answer: 0.25 ± 0.02 % of what added

Question: What about the “Formaldehyde accumulation, Trypsin eluate, % of what added” value [1, 6] of the same compound?
Answer: 0.23 ± 0.03 % of what added

Question: What about the “Formaldehyde accumulation, Cells, % of what added” value [1, 7] of the same compound?
Answer: 0.55 ± 0.07 % of what added

Question: What about the “Formaldehyde accumulation, Trypsin eluate, % of what added” value [1, 7] of the same compound?
Answer: 0.56 ± 0.16 % of what added

Question: And the “Formaldehyde accumulation, Cells, % of what added” value [1, 8]?
Answer: 1.25 ± 0.13 % of what added

Question: What about the “Formaldehyde accumulation, Trypsin eluate, % of what added” value [1, 8] of the same compound?
Answer: 1.36 ± 0.15 % of what added

Question: What about the “Formaldehyde accumulation, Cells, % of what added” value [1, 9] of the same compound?
Answer: 1.7 ± 0.11 % of what added

Question: And the “Formaldehyde accumulation, Trypsin eluate, % of what added” value [1, 9]?
Answer: 2.33 ± 0.34 % of what added

Question: What about the “Formaldehyde accumulation, Cells, % of what added” value [1, 10] of the same compound?
Answer: 1.35 ± 0.09 % of what added

Question: What about the “Formaldehyde accumulation, Trypsin eluate, % of what added” value [1, 10] of the same compound?
Answer: 1.77 ± 0.16 % of what added

Question: What about the “Formaldehyde accumulation, Cells, % of what added” value [1, 11] of the same compound?
Answer: 0.53 ± 0.04 % of what added

Question: What about the “Formaldehyde accumulation, Trypsin eluate, % of what added” value [1, 11] of the same compound?
Answer: 0.45 ± 0.03 % of what added

Question: What about the “Formaldehyde accumulation, Cells, % of what added” value [1, 12] of the same compound?
Answer: 1.26 ± 0.11 % of what added

Question: What about the “Formaldehyde accumulation, Trypsin eluate, % of what added” value [1, 12] of the same compound?
Answer: 1.73 ± 0.23 % of what added

Question: And the “Formaldehyde accumulation, Cells, % of what added” value [1, 13]?
Answer: 3.11 ± 0.27 % of what added

Question: And the “Formaldehyde accumulation, Trypsin eluate, % of what added” value [1, 13]?
Answer: 3.41 ± 0.44 % of what added

Question: What about the “Formaldehyde accumulation, Cells, % of what added” value [1, 14] of the same compound?
Answer: 2.12 ± 0.33 % of what added

Question: What about the “Formaldehyde accumulation, Trypsin eluate, % of what added” value [1, 14] of the same compound?
Answer: 5.16 ± 0.85 % of what added

Question: And the “Formaldehyde accumulation, Cells, % of what added” value [1, 15]?
Answer: 1.73 ± 0.23 % of what added

Question: What about the “Formaldehyde accumulation, Trypsin eluate, % of what added” value [1, 15] of the same compound?
Answer: 3.71 ± 0.45 % of what added

Question: And the “activation” value [2, 4]?
Answer: 30.2%

Question: And the “activation” value [2, 5]?
Answer: 32%

Question: And the “Formaldehyde accumulation, Cells, % of what added” value [2, 6]?
Answer: 0.28 ± 0.03 % of what added

Question: What about the “Formaldehyde accumulation, Trypsin eluate, % of what added” value [2, 6] of the same compound?
Answer: 0.20 ± 0.02 % of what added

Question: And the “Formaldehyde accumulation, Cells, % of what added” value [2, 7]?
Answer: 0.64 ± 0.13 % of what added

Question: And the “Formaldehyde accumulation, Trypsin eluate, % of what added” value [2, 7]?
Answer: 0.45 ± 0.06 % of what added

Question: And the “Formaldehyde accumulation, Cells, % of what added” value [2, 8]?
Answer: 1.52 ± 0.09 % of what added

Question: And the “Formaldehyde accumulation, Trypsin eluate, % of what added” value [2, 8]?
Answer: 1.92 ± 0.11 % of what added

Question: What about the “Formaldehyde accumulation, Cells, % of what added” value [2, 9] of the same compound?
Answer: 2.75 ± 0.18 % of what added

Question: What about the “Formaldehyde accumulation, Trypsin eluate, % of what added” value [2, 9] of the same compound?
Answer: 2.54 ± 0.14 % of what added

Question: And the “Formaldehyde accumulation, Cells, % of what added” value [2, 10]?
Answer: 1.92 ± 0.16 % of what added

Question: What about the “Formaldehyde accumulation, Trypsin eluate, % of what added” value [2, 10] of the same compound?
Answer: 1.83 ± 0.12 % of what added

Question: And the “Formaldehyde accumulation, Cells, % of what added” value [2, 11]?
Answer: 0.62 ± 0.04 % of what added

Question: And the “Formaldehyde accumulation, Trypsin eluate, % of what added” value [2, 11]?
Answer: 0.57 ± 0.04 % of what added

Question: What about the “Formaldehyde accumulation, Cells, % of what added” value [2, 12] of the same compound?
Answer: 1.34 ± 0.05 % of what added

Question: What about the “Formaldehyde accumulation, Trypsin eluate, % of what added” value [2, 12] of the same compound?
Answer: 2.14 ± 0.08 % of what added

Question: And the “Formaldehyde accumulation, Cells, % of what added” value [2, 13]?
Answer: 2.65 ± 0.11 % of what added

Question: And the “Formaldehyde accumulation, Trypsin eluate, % of what added” value [2, 13]?
Answer: 3.44 ± 0.19 % of what added

Question: What about the “Formaldehyde accumulation, Cells, % of what added” value [2, 14] of the same compound?
Answer: 2.75 ± 0.18 % of what added

Question: And the “Formaldehyde accumulation, Trypsin eluate, % of what added” value [2, 14]?
Answer: 3.32 ± 0.27 % of what added

Question: What about the “Formaldehyde accumulation, Cells, % of what added” value [2, 15] of the same compound?
Answer: 1.85 ± 0.25 % of what added

Question: What about the “Formaldehyde accumulation, Trypsin eluate, % of what added” value [2, 15] of the same compound?
Answer: 2.41 ± 0.11 % of what added

Question: What about the solubility [3] of the same compound?
Answer: well dissolve in water, alcohol
